Test results published in patent US20260184697A1, “EZH1/2 INHIBITOR, PREPARATION THEREOF, AND USE THEREOF IN ANTI-TUMOR THERAPY” (JIANGSU TASLY DIYI PHARMACEUTICAL CO., LTD., priority 2022, published 2026).
Like-named read-outs stand apart in the source and are kept apart here.

Key:
[1] = molecular target: T1, EZH1/SUZ/EED (Homo sapiens, UniProt O75530+Q15022+Q92800); experiment: Inhibitory effect on EZH1 by the MTase-Glo method (Test Example 1); type: biochemical; conditions: EZH1/SUZ/EED 25 nM, H3 peptide 10 μM, SAM 3 μM, 30° C. 3 h, read-out: Test Example 1 WT EZH1 IC50
T1 construct: purchased BPS 51006
T1 sequence (Q92800 2-747 limits assumed): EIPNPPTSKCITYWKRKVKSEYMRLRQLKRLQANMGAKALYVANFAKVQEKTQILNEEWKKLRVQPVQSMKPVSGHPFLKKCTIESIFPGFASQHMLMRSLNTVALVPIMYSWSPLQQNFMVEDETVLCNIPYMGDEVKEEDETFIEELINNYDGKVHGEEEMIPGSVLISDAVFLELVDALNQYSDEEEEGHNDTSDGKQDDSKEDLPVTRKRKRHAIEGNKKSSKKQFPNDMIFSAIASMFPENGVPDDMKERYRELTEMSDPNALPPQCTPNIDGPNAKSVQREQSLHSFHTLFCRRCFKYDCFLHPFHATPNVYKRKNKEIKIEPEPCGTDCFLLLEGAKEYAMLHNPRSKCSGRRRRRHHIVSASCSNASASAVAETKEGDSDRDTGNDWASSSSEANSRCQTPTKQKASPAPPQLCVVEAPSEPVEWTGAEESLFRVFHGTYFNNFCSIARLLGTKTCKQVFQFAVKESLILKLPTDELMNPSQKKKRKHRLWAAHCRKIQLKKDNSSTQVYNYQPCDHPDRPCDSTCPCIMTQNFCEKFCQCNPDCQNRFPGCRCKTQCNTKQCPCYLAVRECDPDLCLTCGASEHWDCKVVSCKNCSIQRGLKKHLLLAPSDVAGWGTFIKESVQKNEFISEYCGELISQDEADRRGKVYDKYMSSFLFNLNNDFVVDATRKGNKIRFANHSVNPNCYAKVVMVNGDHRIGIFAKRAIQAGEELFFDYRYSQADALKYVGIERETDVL
T1 sequence (Q15022 2-739 partner limits assumed): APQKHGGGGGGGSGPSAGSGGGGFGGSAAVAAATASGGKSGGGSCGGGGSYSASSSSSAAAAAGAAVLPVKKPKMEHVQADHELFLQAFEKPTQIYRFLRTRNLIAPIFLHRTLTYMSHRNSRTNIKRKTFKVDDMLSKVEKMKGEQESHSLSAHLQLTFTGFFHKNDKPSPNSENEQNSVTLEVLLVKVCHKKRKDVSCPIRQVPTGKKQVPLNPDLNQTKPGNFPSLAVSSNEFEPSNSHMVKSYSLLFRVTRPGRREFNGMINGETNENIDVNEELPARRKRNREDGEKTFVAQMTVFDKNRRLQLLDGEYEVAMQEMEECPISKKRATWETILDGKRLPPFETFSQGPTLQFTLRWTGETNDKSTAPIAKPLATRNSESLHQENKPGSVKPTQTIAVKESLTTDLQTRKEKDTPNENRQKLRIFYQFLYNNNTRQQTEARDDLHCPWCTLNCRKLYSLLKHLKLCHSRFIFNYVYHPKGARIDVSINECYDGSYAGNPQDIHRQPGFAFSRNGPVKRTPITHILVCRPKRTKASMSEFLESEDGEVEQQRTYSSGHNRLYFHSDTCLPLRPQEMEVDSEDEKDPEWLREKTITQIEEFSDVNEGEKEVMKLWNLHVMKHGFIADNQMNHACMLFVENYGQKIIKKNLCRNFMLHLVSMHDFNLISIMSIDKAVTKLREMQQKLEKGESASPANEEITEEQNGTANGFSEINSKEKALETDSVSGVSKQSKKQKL
T1 sequence (O75530 2-441 partner limits assumed): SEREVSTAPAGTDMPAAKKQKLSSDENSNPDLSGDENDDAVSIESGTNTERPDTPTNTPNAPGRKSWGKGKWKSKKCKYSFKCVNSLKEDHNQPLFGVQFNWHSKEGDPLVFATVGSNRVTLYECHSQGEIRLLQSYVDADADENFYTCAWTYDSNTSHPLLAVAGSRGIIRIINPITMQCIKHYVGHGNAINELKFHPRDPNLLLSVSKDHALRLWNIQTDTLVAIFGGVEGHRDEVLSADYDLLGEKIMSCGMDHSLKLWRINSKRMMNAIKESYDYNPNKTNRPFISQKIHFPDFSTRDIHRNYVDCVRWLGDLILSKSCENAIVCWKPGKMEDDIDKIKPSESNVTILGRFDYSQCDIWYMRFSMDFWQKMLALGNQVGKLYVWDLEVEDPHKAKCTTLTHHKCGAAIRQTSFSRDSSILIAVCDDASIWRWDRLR
Method: (§1) The compound was dissolved in DMSO, and the compound was serially diluted using ECHO665 and transferred to a 384-well reaction plate (Corning, 3824). A sample containing only DMSO was added as a positive control (maximum signal control) and a negative control (minimum signal control), while ensuring that the final DMSO content in each reaction well was 0.5%. The protein was configured in reaction buffer (50 mM Bicine, 0.01% Triton X-100, 1 mM DTT, 0.01% BSA, pH 7.6), such that the final reaction concentrations of EZH2/SUZ/EED (BPS, 51003) protein solution and EZH1/SUZ/EED (BPS, 51006) were 6.25 nM and 25 nM, respectively. The negative control (minimum signal control) used an equal amount of buffer instead of protein solution. The prepared protein solution was added to the 384-well reaction plate and pre-incubated at room temperature for 15 minutes. The mixture of the substrate H3 peptide fragment (custom-synthesized by GenScript, biotinylated Histone H3(21-44) peptide ([…]-GG-K(Biotin)-OH)) prepared in the reaction buffer and SAM (Promega, V7601) was added into the 384-well plate, such that the final reaction concentration of H3 peptide fragment was 10 μM, and the final concentration of SAM was 3 μM. The mixture was centrifuged at 1000 rpm for 1 min. The 384-well reaction plate was placed in a constant temperature shaker and incubate at 30° C. for 3 h at a speed of 300 rpm. Then the detection reagent was added according to the experimental process of the kit MTase-Glo (Promega, V7601) and incubated.
(§2) After incubation, read with BMG PHERAStar. The luminescence signals obtained by positive control (maximum signal control) and negative control (minimum signal control) were normalized to obtain the inhibition rate of different concentrations of compounds. Then, the IC50 of the compound on the enzyme activity inhibition was calculated by GraphPad Prism 6 with log(inhibitor) vs. response-Variable slope model fitting. The fitting equation is: Y=Bottom+(Top−Bottom)/(1+10^((Log IC50−X)*HillSlope)), wherein Y represents the known percentage remaining enzyme activity, and X represents the known activity after Log compound concentration.

[2] = molecular target: T2, EZH2/SUZ/EED (Homo sapiens, UniProt O75530+Q15022+Q15910); experiment: Inhibitory effect on EZH2 by the MTase-Glo method (Test Example 1); type: biochemical; conditions: EZH2/SUZ/EED 6.25 nM, H3 peptide 10 μM, SAM 3 μM, 30° C. 3 h, read-out: Test Example 1 WT EZH2 IC50
T2 construct: purchased BPS 51003
T2 sequence (Q15910 2-746 limits assumed): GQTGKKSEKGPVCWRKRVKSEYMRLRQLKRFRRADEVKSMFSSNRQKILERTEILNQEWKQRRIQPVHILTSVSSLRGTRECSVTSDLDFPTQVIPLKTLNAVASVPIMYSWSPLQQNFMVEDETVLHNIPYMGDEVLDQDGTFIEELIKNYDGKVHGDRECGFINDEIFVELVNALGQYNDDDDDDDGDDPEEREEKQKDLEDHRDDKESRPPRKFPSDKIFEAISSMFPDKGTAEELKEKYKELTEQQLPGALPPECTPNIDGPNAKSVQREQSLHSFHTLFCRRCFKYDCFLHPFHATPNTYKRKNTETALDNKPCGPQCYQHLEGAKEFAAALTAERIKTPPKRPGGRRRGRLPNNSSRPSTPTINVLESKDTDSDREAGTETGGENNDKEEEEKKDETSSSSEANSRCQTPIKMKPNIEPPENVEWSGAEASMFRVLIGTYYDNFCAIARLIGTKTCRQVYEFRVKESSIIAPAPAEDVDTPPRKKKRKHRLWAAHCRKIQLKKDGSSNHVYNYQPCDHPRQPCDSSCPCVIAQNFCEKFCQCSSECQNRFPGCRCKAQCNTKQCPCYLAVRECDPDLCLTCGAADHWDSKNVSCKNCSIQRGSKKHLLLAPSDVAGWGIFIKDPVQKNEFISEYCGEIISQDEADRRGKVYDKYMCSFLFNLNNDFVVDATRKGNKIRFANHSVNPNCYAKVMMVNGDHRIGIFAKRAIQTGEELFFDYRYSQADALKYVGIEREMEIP
T2 sequence (Q15022 2-739 partner limits assumed): as the sequence (Q15022 2-739 partner limits assumed) above
T2 sequence (O75530 2-441 partner limits assumed): as the sequence (O75530 2-441 partner limits assumed) above
Method: as §1, §2

[3] = tested on: H3K27Me3 methylation in Karpas-422 cells; experiment: H3K27Me3 cell method, inhibition of H3K27Me3 methylation (Test Example 2); type: cell-based, human
Method: Karpas-422 (Nanjing Kebai, CBP60629) cells were seeded in a 96-well plate (Corning, 3894) at 15,000 cells per well in culture medium (80% 1640 (Hyclone, SH30809.01)+20% FBS (Corning, 35-081-CV)), and then added with different concentrations of compounds for treatment. The cell growth group without adding compounds is used as a positive control (maximum signal control), and the medium is used as a negative control (minimum signal control), while ensuring that in each reaction well, the final concentration of DMSO was 0.2%. Compounds and cells were incubated for 3 days in a cell culture incubator (37° C., 5% CO2). The 96-well plate was taken out from the cell culture incubator and equilibrated to room temperature, and 25 ul of cell suspension was taken out into a 384-well plate. The CCK8 (Beiyuntian, C0040) detection reagent was added, incubated at 37° C. for 1 h, and […] was detected. The rest of the cells followed the procedure of the kit EPIgeneous H3K27Me3 cellular kit (Cisbio, 62KC3PAE) to carry out experiment, read HTRF signal with BMG PHERAStar. […] By GraphPad Prism 6 with log(inhibitor)vs.response-Variable slope model simulation, the IC50 of the compound on cell activity inhibition was calculated. The fitting equation is: Y=Bottom+(Top−Bottom)/(1+10^((Log IC50−X)*HillSlope)), wherein Y represents the inhibition rate, and X represents the known concentration of the compound after Log.

[4] = Homo sapiens, KARPAS-422, 72 h, Karpas-422 cells, 3 days incubation, HTRF signal, read-out: Test Example 2 H3K27Me3 inhibition (Karpas-422) IC50
[5] = Homo sapiens, KARPAS-422, 72 h, read-out: Test Example 2 H3K27Me3 inhibition (Karpas-422) IC50(nM)
[6] = Karpas-422 cells, 3 days incubation, HTRF signal, read-out: Test Example 2 H3K27Me3 inhibition (Karpas-422) IC50

| SMILES | IC50 [1] [nM] | IC50 [2] [nM] | IC50 [3, 4] [nM] | IC50 [3, 5] [nM] | IC50 [3, 6] [nM] |
| --- | --- | --- | --- | --- | --- |
| [2H]C1(OC)CN([C@H]2CC[C@@H]([C@H]3COc4c(Cl)cc(C(=O)NCc5c(SC)cc(C)[nH]c5=O)c(C)c4O3)CC2)C1 [Compound 22] | 2.3 | 2.1 | 1.8 | – | – |
| CSc1cc(C)[nH]c(=O)c1CNC(=O)c1cc(Cl)c2c(c1C)O[C@@H](C1CCN(CCF)CC1)CO2 [Compound 24] | 9.2 | 4.5 | 9.8 | – | – |
| Cc1cc(C)c(CNC(=O)c2cc(Cl)c3c(c2C)CC(C)(C2CCC(N(C)C)CC2)O3)c(=O)[nH]1 (stereo not drawn) [Compound 181] | 1350 | 30.4 | – | 410 | – |
| CSc1cc(C)[nH]c(=O)c1CNC(=O)c1cc(Cl)c2c(c1C)O[C@@H]([C@H]1CC[C@@H](N3CC4(COC4)C3)CC1)CO2 [Compound 28] | 9.4 | 3.7 | 8.2 | – | – |
| COC1CN([C@H]2CC[C@@H]([C@H]3COc4c(Cl)cc(C(=O)NCc5c(C)cc(C)[nH]c5=O)c(C)c4O3)CC2)C1 [Compound 92] | 33.1 | 2.5 | 22 | – | – |
| CSc1cc(C)[nH]c(=O)c1CNC(=O)c1cc(Cl)c2c(c1C)O[C@@H]([C@H]1CC[C@H](N3CC(CF)C3)CC1)CO2 [Compound 35] | 7.4 | 3.4 | 60.5 | – | – |
| Cc1cc(C)c(CNC(=O)c2cc(Cl)c3c(c2C)OC(C2CCC(N4CC(OC5CC5)C4)CC2)CO3)c(=O)[nH]1 (single isomer, unassigned) [Compound 76] | 270 | 7.6 | – | – | 7.6 |
| Cc1cc(C)c(CNC(=O)c2cc(Cl)c3c(c2C)OC(C2CCC(N4CC5COCC5C4)CC2)CO3)c(=O)[nH]1 (single isomer, unassigned) [Compound 59] | 7 | 9.6 | – | – | 233 |
| COCCN(C)[C@H]1CC[C@@H]([C@H]2COc3c(Cl)cc(C(=O)NCc4c(SC)cc(C)[nH]c4=O)c(C)c3O2)CC1 [Compound 26] | 5.4 | 2 | 3.4 | – | – |
| COCCOC1CN([C@H]2CC[C@@H]([C@H]3COc4c(Cl)cc(C(=O)NCc5c(C)cc(C)[nH]c5=O)c(C)c4O3)CC2)C1 [Compound 91] | 27.3 | 3.8 | 11.7 | – | – |
| Cc1cc(C)c(CNC(=O)c2cc(Cl)c3c(c2C)OC(C2CCC(N4CC5COCC5C4)CC2)CO3)c(=O)[nH]1 (single isomer, unassigned) [Compound 60] | 94.9 | 16.4 | – | – | > 1000 |
| COCCN1CCC([C@H]2COc3c(Cl)cc(C(=O)NCc4c(SC)cc(C)[nH]c4=O)c(C)c3O2)CC1 [Compound 17] | 16.5 | 4.6 | 12 | – | – |
| COC1C2CN([C@H]3CC[C@@H]([C@H]4COc5c(Cl)cc(C(=O)NCc6c(SC)cc(C)[nH]c6=O)c(C)c5O4)CC3)CC21 (stereo partly drawn) [Compound 43] | 4.1 | 3.6 | 4.1 | – | – |
| COC1CN(C2CCC(C3COc4c(Cl)cc(C(=O)NCc5c(C)cc(C)[nH]c5=O)c(C)c4O3)CC2)C1 (single isomer, unassigned) [Compound 62] | 1440 | 22.1 | – | – | 504 |
| Cc1cc(C)c(CNC(=O)c2cc(Cl)c3c(c2C)OC(C2CCC(N(C)C)CC2)C(C)O3)c(=O)[nH]1 (stereo not drawn) [Compound 124] | 326 | 16.1 | – | 133 | – |
| Cc1cc(C)c(CNC(=O)c2cc(Cl)c3c(c2C)OC(C2CCC(N(C)CCF)CC2)CO3)c(=O)[nH]1 (stereo not drawn) [Compound 125] | 307 | 33.9 | 402 | – | – |
| Cc1cc(C)c(CNC(=O)c2cc(Cl)c3c(c2C)O[C@@H]([C@H]2CC[C@@H](N4CC5COCC5C4)CC2)CO3)c(=O)[nH]1 (stereo partly drawn) [Compound 73] | 196 | 51.3 | > 1000 | – | – |
| CSc1cc(C)[nH]c(=O)c1CNC(=O)c1cc(Cl)c2c(c1C)O[C@@H]([C@H]1CC[C@H](N3CC4(COC4)C3)CC1)CO2 [Compound 29] | 5.8 | 3.3 | 34.2 | – | – |
